In the supplement of paper PMC10307832:

How the values were obtained:
PAC-1 + Vorinostat = compound: C=CCc1cccc(/C=N/NC(=O)CN2CCN(Cc3ccccc3)CC2)c1O [PAC-1] + O=C(CCCCCCC(=O)Nc1ccccc1)NO [Vorinostat] (partner 1 µM); assay: relative viability (nuclei count vs DMSO), 5 days (fraction); higher = more cells survive
Summary of the method: (§1)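 The day after seeding in 1536-well plates, lung cancer cell lines were treated by pin tool with a single drug, or with a fixed anchor-drug dose together with five library-drug doses (not always all listed) in √10 steps. After 5 days, a combined fix-and-stain solution (final 0.05% Triton X-100, 1% formaldehyde, 1 ug/ml Hoechst) was added. Nuclei counted on 4× images gave relative viability as treated counts over vehicle counts, reported as the median of duplicate plates.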

BMX-IN-1 + Palbociclib = compound: C=CC(=O)Nc1cc(-n2c(=O)ccc3cnc4ccc(-c5ccc(NS(C)(=O)=O)cc5)cc4c32)ccc1C [BMX-IN-1] + CC(=O)c1c(C)c2cnc(Nc3ccc(N4CCNCC4)cn3)nc2n(C2CCCC2)c1=O [Palbociclib] (partner 0.5 µM); assay: as above
Summary of the method: as §1

Row | Cell Line | relative viability (PAC-1 + Vorinostat; first compound 0.02 µM) | relative viability (PAC-1 + Vorinostat; first compound 0.06325 µM) | relative viability (PAC-1 + Vorinostat; first compound 0.2 µM) | relative viability (PAC-1 + Vorinostat; first compound 2 µM) | relative viability (BMX-IN-1 + Palbociclib; first compound 0.02 µM) | relative viability (BMX-IN-1 + Palbociclib; first compound 0.2 µM) | relative viability (BMX-IN-1 + Palbociclib; first compound 0.6325 µM) | relative viability (BMX-IN-1 + Palbociclib; first compound 2 µM)
1 | NCI-H2085 | 0.791 | 0.789 | 0.737 | 0.822 | 0.473 | 0.438 | 0.484 | 0.46
2 | HCC-78 | 0.379 | 0.416 | 0.435 | 0.431 | 0.447 | 0.464 | 0.492 | 0.549
3 | NCI-H647 | 0.28 | 0.67 | 0.706 | 0.514 | 0.436 | 0.384 | 0.377 | 0.416
4 | LU99A | 0.502 | 0.448 | 0.429 | 0.502 | 0.45 | 0.428 | 0.421 | 0.411
5 | HARA |  | 0.56 | 0.529 | 0.526 | 0.304 | 0.299 | 0.258 | 0.247
6 | NCI-H1944 | 0.537 | 0.555 | 0.542 | 0.642 | 0.35 | 0.357 | 0.327 | 0.288
7 | LCLC-103H | 0.854 | 0.864 | 0.759 | 0.826 | 0.475 | 0.532 | 0.479 | 0.412
8 | NCI-H1792 |  |  |  |  |  | 0.64 | 1.26 | 0.613
9 | SW 900 |  | 0.41 | 0.494 | 0.553 | 0.467 | 0.676 | 0.53 | 0.626
10 | LOU-NH91 | 0.876 | 0.937 | 0.897 | 0.887 |  | 0.541 | 0.488 | 0.546
11 | HCC-366 | 0.396 | 0.339 | 0.258 | 0.449 | 0.535 | 0.385 | 0.454 | 0.485
12 | CAL-12T | 0.89 | 0.793 | 0.688 | 0.712 | 0.466 | 0.415 | 0.523 | 0.503
13 | NCI-H1355 | 0.61 | 0.625 | 0.572 | 0.665 | 0.394 | 0.392 | 0.399 | 0.404
14 | ABC-1 | 1.06 | 1 | 1.44 | 1.09 | 0.76 | 0.503 | 0.537 | 0.589
15 | NCI-H2405 | 1.05 | 1.12 | 1.14 | 1.15 | 0.574 | 0.585 | 0.584 | 0.542
16 | NCI-H1648 | 0.49 | 0.42 | 0.431 | 0.463 | 0.251 | 0.256 | 0.286 | 0.31
17 | NCI-H650 | 0.494 | 0.36 | 0.442 | 0.395 | 0.293 | 0.332 | 0.331 | 0.353
18 | NCI-H2228 | 0.699 | 0.932 | 0.546 | 0.504 | 0.948 | 0.878 | 0.608 | 0.785

Row | Cell Line | relative viability (PAC-1 + Vorinostat; first compound 0.02 µM) | relative viability (PAC-1 + Vorinostat; first compound 0.06325 µM) | relative viability (PAC-1 + Vorinostat; first compound 0.2 µM) | relative viability (PAC-1 + Vorinostat; first compound 2 µM) | relative viability (BMX-IN-1 + Palbociclib; first compound 0.02 µM) | relative viability (BMX-IN-1 + Palbociclib; first compound 0.2 µM) | relative viability (BMX-IN-1 + Palbociclib; first compound 0.6325 µM) | relative viability (BMX-IN-1 + Palbociclib; first compound 2 µM)
19 | EPLC-272H | 0.457 | 0.3 | 0.309 | 0.225 | 0.323 | 0.324 | 0.323 | 0.317
20 | SK-LU-1 | 0.742 | 0.846 | 0.757 | 0.855 | 0.323 | 0.399 | 0.385 | 0.335
21 | PC-3 [JPC-3] | 0.82 | 0.915 | 1.06 | 0.832 | 0.544 | 0.598 | 0.546 | 0.521
22 | ChaGo-K-1 | 0.754 | 0.773 | 0.65 | 0.829 | 0.996 | 1.13 | 0.905 | 0.987
23 | NCI-H3122 | 1.01 | 0.972 | 0.787 | 0.83 | 0.193 | 0.204 | 0.174 | 0.164
24 | NCI-H2126 | 0.733 | 0.785 | 0.803 | 0.763 | 0.379 | 0.345 | 0.363 | 0.322
25 | NCI-H1993 | 0.821 | 0.895 | 0.658 | 0.652 | 0.706 | 0.683 | 0.646 | 0.55
26 | NCI-H1793 | 0.653 | 0.814 | 0.741 | 0.894 | 0.38 | 0.35 | 0.285 | 0.307
27 | NCI-H441 | 0.87 | 1.05 | 0.82 | 0.761 | 0.199 | 0.205 | 0.234 | 0.21
28 | H3255 | 0.923 | 0.762 | 0.87 | 0.593 | 0.311 | 0.318 | 0.349 | 0.299
29 | NCI-H2087 | 0.678 | 0.665 | 0.722 | 0.858 | 0.214 | 0.229 | 0.252 | 0.257
30 | NCI-H661 | 0.786 | 0.784 | 0.743 | 0.676 | 0.388 | 0.39 | 0.421 | 0.398
31 | COR-L 105 | 1.08 | 0.817 | 0.817 | 0.801 | 0.449 | 0.442 | 0.447 | 0.39
32 | BEN | 0.558 | 0.58 | 0.552 | 0.601 | 0.489 | 0.479 | 0.479 | 0.518
33 | NCI-H2023 | 0.741 | 0.605 | 0.495 | 0.474 | 0.48 | 0.389 | 0.386 | 0.381
34 | UMC-11 | 0.36 | 0.41 | 0.349 | 0.513 | 0.345 | 0.336 | 0.341 | 0.318
35 | NCI-H1755 | 0.777 | 0.787 | 0.774 | 0.718 | 0.394 | 0.439 | 0.509 | 0.422
36 | NCI-H1666 | 1.08 | 1.03 | 1 | 1.09 | 0.64 | 0.672 | 0.606 | 0.628
